This is an account of results in US12246082B2, “Efficient sunscreen compositions with diethylamino hydroxybenzoyl hexyl benzoate and butyl methoxydibenzoylmethane free of octocrylene” (BASF SE, priority 2019, dated 2025).

For data set [1] the following is noted: stated in the description; cited from earlier work.
A short description of data set [2]: Measurement of interfacial tension (polarity index) of emollients. In kind it is physicochemical. To be noted: Tensimat Densimat TD2000. The source says:
The term “polarity index” refers to non-polar or polar oils. Non-polar oils are mainly based on hydrocarbons and lack an electronegative element, such as oxygen. In contrast, polar oils contain heteroatoms that differ in electronegativity, which results in a dipole moment. However, such oils are still insoluble in water, i.e. hydrophob. The polarity index can be determined by measuring the interfacial tension between the respective oil and water.
Interfacial tension of the respective emollients as listed below was measured using a Tensimat Densimat TD2000.

Data set [3] is described as follows: Solubility measurements of UV filter in emollients. In kind it is physicochemical. To be noted: 25° C., seven days.
Method: The vial is placed in a thermostated water bath (25° C.) and the blend is stirred for seven days. If the tested UV-filter is fully soluble, additional filter is added until precipitation is observed. After seven days, the sample is centrifuged for 30 minutes at 13000 rpm. If the supernatant is turbid, it is filtered through a 0.2 μm non steril Membrex 25 PET filter.

Counter-ions that a name gives are not always drawn.

As for `COc1ccc(C(=O)CC(=O)c2ccc(C(C)(C)C)cc2)cc1` [BMDBM, 1-(4-(1,1-dimethylethyl)phenyl)-3-(4-methoxyphenyl)propane-1,3-dione], in data set [1], the absorption maximum was 357 nm.

Molecule `CCCCOC(=O)CCCCC(=O)OCCCC` [dibutyl adipate] showed a polarity index in data set [2] of 14 mN/m.

As for `CCCCCCCCCCC(CO)CCCCCCCC` (centres unmarked) [octyldodecanol], the polarity index in data set [2] is 25 mN/m.

`CCCCCCOC(=O)c1ccccc1C(=O)c1ccc(N(CC)CC)cc1O` [DHHB, hexyl 2-[4-(diethylamino)-2-hydroxybenzoyl]benzoate]: the solubility in data set [3] (in C12-15 alkyl benzoate) is 22%; in data set [3] (in butylene glycol dicaprylate/dicaprate), 23%; in data set [3] (in caprylic capric triglyceride), 14%; in data set [3] (in cyclomethicone), under 1%; in data set [3] (in dibutyl adipate), 31%; in data set [3] (in diisopropyl adipate) it was 21%. The solubility in data set [3] (in diisopropyl sebacate) is reported as 41%; in data set [3] (in hydrogenated polyisobutene) it was under 1%; in data set [3] (in mineral oil), under 1%; in data set [3] (in octyldodecanol), 2.5%; in data set [3] (in phenethyl benzoate), 57%; in data set [3] (in propylene glycol dicaprylate/dicaprate) it was 22%. The solubility in data set [3] (in tributyl citrate) was found to be 29.4%; in data set [3] (in triethyl citrate) it was 29%. Besides, the absorption maximum in data set [1] is 354 nm.

Regarding `C[Si]1(C)O[Si](C)(C)O[Si](C)(C)O[Si](C)(C)O[Si](C)(C)O1` [cyclopentasiloxane], the polarity index in data set [2] is on record as 32 mN/m.

In data set [2], `CCOC(=O)CC(O)(CC(=O)OCC)C(=O)OCC` [triethyl citrate] showed a polarity index of 7 mN/m.

In turn, `CC(C)OC(=O)CCCCCCCCC(=O)OC(C)C` [diisopropyl sebacate] yielded a polarity index in data set [2] of 19 mN/m.

Consider `CCCCC(CC)COC(=O)c1ccc(Nc2nc(Nc3ccc(C(=O)NC(C)(C)C)cc3)nc(Nc3ccc(C(=O)OCC(CC)CCCC)cc3)n2)cc1` (centres unmarked) [diethylhexyl-butamidotriazone, 4,4′-[[6-[[4-[[(1,1-dimethylethyl)amino]carbonyl]phenyl]amino]-1,3,5-triazin-2,4-diyl]diimino]bis-benzoic acid-bis(2-ethylhexyl)ester], for which the absorption maximum in data set [1] was 310 nm.

Turning to `CCCCOC(=O)CC(O)(CC(=O)OCCCC)C(=O)OCCCC` [tributyl citrate], in data set [2], the polarity index stood at 10 mN/m.

Consider `CC(C)OC(=O)CCCCC(=O)OC(C)C` [diisopropyl adipate], for which the polarity index in data set [2] amounted to 12 mN/m.

For `O=C(OCCc1ccccc1)c1ccccc1` [phenethyl benzoate], the polarity index in data set [2] amounted to 19 mN/m.

In the case of `CCCCC(CC)COC(=O)/C=C/c1ccc(OC)cc1` (centres unmarked) [ethylhexyl methoxy cinnamate, 2-Ethylhexyl-(2E)-3-(4-methoxyphenyl)acrylate], the absorption maximum in data set [1] is recorded as 310 nm.
